Experimental findings from patent US20030013770A1, “Aminobenzophenones as inhibitors of il 1b and tnf” (priority 2001, published 2003) are described below.

What all share (type): cell-based
In one test the test system is PMN-superoxide. Nature of the test: Inhibition of PMN (polymorphonuclear) superoxide secretion. As to conditions: human PMN granulocytes primed with TNF-α, stimulated with fMLP; reduction of ferricytochrome C; read-out: The median inhibition concentration (IC50, nM) of PMN-superoxide. The method, then:
The compounds of the present invention also show similar activities in the ability to inhibit PMN (polymorphonuclear) superoxide secretion which is also indicative of potentially useful anti-inflammatory drugs. The compounds were tested using the following procedure:
Human polymorphonuclear (PMN) granulocytes were isolated from human blood by dextran sedimentation, Lymphoprep® fractionation and hypotonic lysis of contaminating erythrocytes. Superoxide anion generation was measured as the superoxide dismutase inhibitable reduction of ferricytochrome C (Madhu, S. B. et al, Inflammation, 16, 241, (1992)). The cells were suspended in Hanks' balanced salt solution, and incubated for 10 minutes at 37° C. with test compounds. The cells were primed by the addition of TNF-α (3 ng/ml final concentration) for 10 minutes, and then ferricytochrome C, (final concentration 750 μg/ml), bovine serum albumin (BSA, final concentration 1 mg/ml) and formyl-methionyl-leucyl-phenylalanine (fMLP, final concentration 10^−7 M) were added for 3 minutes. The cells were chilled on ice, and were spun down. The optical densities in the cell-free supernatant was measured in a spectrophotometer. The median inhibitory concentration (IC50) of the compounds was calculated.

Another test concerns IL-1β. The experiment in a line: Inhibition of IL-1β secretion in LPS stimulated peripheral blood mononuclear cells. As to conditions: PBMC; LPS stimulated human peripheral blood mononuclear cells; 18 hours; ELISA of medium; read-out: The median inhibition concentration (IC50, nM) of IL-1β. The method, then: (§1) To study the effect of the compound of the present invention in vitro the inhibition of the IL-1β and TNF-α secretion was measured using the following procedure:
(§2) Cytokine production was measured in the media from lipopolysaccharide (LPS) stimulated peripheral blood mononuclear cells. The mononuclear cells were isolated from human peripheral blood by Lymphoprep® (Nycomed, Norway) fractionation and suspended in RPMI 1640 (growth medium) with foetal calf serum (FCS, 2%), at a concentration of 5×10^5 cells/ml. The cells were incubated in 24-well tissue culture plates in 1 ml aliquots. Test compounds were dissolved in dimethylsulfoxide (DMSO, 10 mM) and were diluted with the medium. Compounds were added to the cells for 30 minutes, then LPS ([…] final concentration) was added. The plates were incubated for 18 hours, and the concentration of IL-1β and TNF-α in the medium was determined by enzyme-linked immunosorbent assays. The median inhibitory concentrations (IC50) of the compounds were calculated.
(In an ELISA, binding on a coated surface is turned into a signal by an enzyme label.)

A further test concerns TNF-α. The experiment in a line: Inhibition of TNF-α secretion in LPS stimulated peripheral blood mononuclear cells. As to conditions: PBMC; LPS stimulated human peripheral blood mononuclear cells; 18 hours; ELISA of medium; read-out: The median inhibition concentration (IC50, nM) of TNF-α. As for the experimental part:
as §1, §2

On to `Cc1ccccc1Nc1ccc(C(=O)c2ccccc2C)c(Cl)c1` [Compound 102, 2-Chloro-2′-methyl-4-(2-methyl-phenylamino)benzophenone], for which the IC50 with PMN-superoxide was 6.3 nM; with IL-1β, 13 nM; in the test on TNF-α, 4 nM.

In the case of `Cc1ccccc1C(=O)c1ccc(Nc2ccc(Cl)cc2)cc1Cl` [Compound 119, 2-Chloro-4-(4-chloro-phenylamino)-2′-methylbenzophenone], the figures for the IC50 with PMN-superoxide, in the test with IL-1β and in the test with TNF-α were 5 nM, 40 nM and 16 nM, respectively.

As for `Cc1ccccc1C(=O)c1ccc(Nc2ccccc2N)cc1Cl` [ref. A), 4-(2-Aminophenylamino)-2-chloro-2′-methylbenzophenone, reference compound], the figures for the IC50 with PMN-superoxide, in the test with IL-1β and with TNF-α were 5 nM, 13 nM and 7.1 nM, respectively.

With `Cc1cc(F)ccc1Nc1ccc(C(=O)c2ccccc2C)c(Cl)c1` [Compound 116, 2-Chloro-4-(4-fluoro-2-methyl-phenylamino)-2′-methylbenzophenone], the values for the IC50 with PMN-superoxide, with IL-1β and in the test on TNF-α were 3.7 nM, 32 nM and 7.9 nM, respectively.

For the compound `Cc1ccc(F)cc1Nc1ccc(C(=O)c2ccccc2C)c(Cl)c1` [Compound 130, 2-Chloro-4-(5-fluoro-2-methyl-phenylamino)-2′-methylbenzophenone], the values for the IC50 in the test with PMN-superoxide, with IL-1β and in the test with TNF-α were 50 nM, 40 nM and 6.3 nM, respectively.

Take `Cc1ccccc1C(=O)c1ccc(Nc2cccc(F)c2C)cc1Cl` [Compound 131, 2-Chloro-4-(3-fluoro-2-methyl-phenylamino)-2′-methylbenzophenone]: the figures for the IC50 in the test with PMN-superoxide, in the test on IL-1β and in the test on TNF-α were 13 nM, 13 nM and 4 nM, respectively.

In the case of `Cc1ccccc1C(=O)c1ccc(Nc2cccc(Cl)c2)cc1Cl` [Compound 109, 2-Chloro-4-(3-chloro-phenylamino)-2′-methylbenzophenone], the IC50 is 20 nM with PMN-superoxide, 50 nM in the test with IL-1β and 7.9 nM with TNF-α.

As for `Cc1ccccc1C(=O)c1ccc(Nc2ccccc2F)cc1Cl` [Compound 105, 2-Chloro-4-(2-fluoro-phenylamino)-2′-methylbenzophenone], the IC50 in the test with PMN-superoxide worked out at 13 nM; in the test with IL-1β, 25 nM; in the test on TNF-α it was 4 nM.

`Cc1cc(Br)ccc1Nc1ccc(C(=O)c2ccccc2C)c(Cl)c1` [Compound 136, 4-(4-Bromo-2-methyl-phenylamino)-2-chloro-2′-methylbenzophenone]: the IC50 in the test on PMN-superoxide amounted to 100 nM; in the test with IL-1β it was 100 nM; in the test on TNF-α, 8 nM.
